Source: patent US9896441B2 (Lycera Corporation, priority 2014, dated 2018)

Assays:
RORγ-LBD = target: T1, RORγ-LBD (Homo sapiens, UniProt P51449); assay: RORγ-Ligand Binding Domain (LBD) TR-FRET Assay; assay type: biochemical; details: for TR-FRET Assay Max Response: maximum response;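 on TR-FRET Assay Max Response: 665/615 nm signal ratio set to 100 without ursolic acid or test compound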
T1 construct: made in house; host or cells: SF9 cells (baculovirus); used as diluted lysate
T1 sequence (P51449 269-508 limits assumed): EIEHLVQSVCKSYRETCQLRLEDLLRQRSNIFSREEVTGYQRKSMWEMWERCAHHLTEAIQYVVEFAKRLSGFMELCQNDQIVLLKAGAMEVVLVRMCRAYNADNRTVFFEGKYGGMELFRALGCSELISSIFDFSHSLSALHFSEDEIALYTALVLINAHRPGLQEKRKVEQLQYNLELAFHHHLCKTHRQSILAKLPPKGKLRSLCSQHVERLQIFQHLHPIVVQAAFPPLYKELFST
How it was run: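 SF9 lysate containing His-RORγ-LBD, ~3 nM final; coactivator peptide biotin-SRC1 LXXLL, 200 nM final; ursolic acid 2 μM final; DMSO 1% final; Tris pH 7.0 buffer with KCl, EDTA, DTT, BSA. TR-FRET format.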

Gal4-RORγ-LBD = target: T2, Gal4-RORγ-LBD (Homo sapiens, UniProt P51449); assay: Gal4-RORγ Luciferase Reporter Assay in HEK-293T Cells; assay type: cell-based; details: HEK-293 cells; for Gal4-RORγ Assay Max Response: maximum response
T2 construct: expressed in transfected cells
T2 sequence (P51449 269-508 limits assumed): T1 sequence (P51449 269-508 limits assumed)
How it was run: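 HEK-293 cells were co-transfected with Gal4-RORγ-LBD and a Gal4-luciferase reporter, then exposed overnight at 37 °C to compounds with […] ursolic acid present (0.2% DMSO). Luminescence was read with One-Glo after 10 min at RT, untreated signal was set as 100, and Max Response was taken as the upper plateau of a 4-parameter logistic fit.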

[1] = luciferase reporter, in presence of ursolic acid
[2] = luciferase reporter, with ursolic acid

Row | Structure (SMILES) | EC50 (RORγ-LBD; RORγ-LBD TR-FRET) | EC50 (Gal4-RORγ-LBD; [2]) | other results
1 | C/C(=C\c1ccc2c(c1)N(S(=O)(=O)c1cccc(C(F)(F)F)c1)CCC2(F)F)c1c(F)cccc1Cl [Example 189, (E)-7-(2-(2-Chloro-6-fluorophenyl)prop-1-en-1-yl)-4,4-difluoro-1-((3-(trifluoromethyl)phenyl)sulfonyl)-1,2,3,4-tetrahydroquinoline] |  |  | EC50 (RORγ-LBD; RORγ-LBD TR-FRET assay): < 500 nM; TR-FRET Assay Max Response (RORγ-LBD; RORγ-LBD TR-FRET assay): *** (a value in the range of greater than 150 to 200); EC50 (Gal4-RORγ-LBD; [1]): 0.5 to 5 µM; Gal4-RORγ Assay Max Response (Gal4-RORγ-LBD; [1]): ** (a value in the range of greater than 90 to 150)
2 | C/C(=C\c1cc2c(cc1F)O[C@@H](CCC(=O)O)CN2S(=O)(=O)c1cccc(OC(F)F)c1)c1c(F)cccc1Cl [Example 44, (S,E)-3-(6-(2-(2-Chloro-6-fluorophenyl)prop-1-en-1-yl)-4-((3-(difluoromethoxy)phenyl)sulfonyl)-7-fluoro-3,4-dihydro-2H-benzo[b][1,4]oxazin-2-yl)propanoic acid] | < 500 nM | 0.5 to 5 µM | 
3 | C/C(=C\c1ccc2c(c1)N(S(=O)(=O)c1cccc(C(F)(F)F)c1)C[C@H](CCC(=O)N1CCC[C@@H]1C(=O)O)O2)c1c(F)cccc1Cl [Example 129H, (3-((S)-6-((E)-2-(2-chloro-6-fluorophenyl)prop-1-en-1-yl)-4-((3-(trifluoromethyl)phenyl)sulfonyl)-3,4-dihydro-2H-benzo[b][1,4]oxazin-2-yl)propanoyl)-D-proline] |  |  | EC50 (RORγ-LBD; RORγ-LBD TR-FRET assay): < 500 nM; TR-FRET Assay Max Response (RORγ-LBD; RORγ-LBD TR-FRET assay): *** (a value in the range of greater than 150 to 200); EC50 (Gal4-RORγ-LBD; [1]): < 0.5 µM; Gal4-RORγ Assay Max Response (Gal4-RORγ-LBD; [1]): *** (a value in the range of greater than 150 to 200)
4 | O=C(O)CC[C@H]1CN(S(=O)(=O)c2cccc(OC(F)F)c2)c2cc(/C=C/c3ncccn3)ccc2O1 [Example 89G, (S,E)-3-(4-((3-(difluoromethoxy)-phenyl)sulfonyl)-6-(2-(pyrimidin-2-yl)vinyl)-3,4-dihydro-2H-benzo[b][1,4]oxazin-2-yl)propanoic acid] | 500 to 5000 nM | > 10 µM | 
5 | COC(=O)CO[C@@H]1Cc2ccc(OCc3c(F)cccc3Cl)cc2N(S(=O)(=O)c2cccc(C(F)(F)F)c2)C1 [Example 173A] |  |  | EC50 (RORγ-LBD; RORγ-LBD TR-FRET assay): < 500 nM; EC50 (Gal4-RORγ-LBD; [1]): < 0.5 µM
6 | O=S(=O)(c1cccc(C(F)(F)F)c1)N1C[C@H](O)Cc2ccc(/C=C/c3c(F)cccc3Cl)cc21 [Example 163, (R,E)-7-(2-Chloro-6-fluorostyryl)-1-((3-(trifluoromethyl)phenyl)sulfonyl)-1,2,3,4-tetrahydroquinolin-3-ol] |  |  | EC50 (RORγ-LBD; RORγ-LBD TR-FRET assay): < 500 nM; TR-FRET Assay Max Response (RORγ-LBD; RORγ-LBD TR-FRET assay): ** (a value in the range of greater than 90 to 150); EC50 (Gal4-RORγ-LBD; [1]): < 0.5 µM; Gal4-RORγ Assay Max Response (Gal4-RORγ-LBD; [1]): ** (a value in the range of greater than 90 to 150)
7 | Cc1ccc(/C=C/c2ccc3c(c2)N(S(=O)(=O)c2cccc(OC(F)F)c2)C[C@H](CCC(=O)O)O3)cc1 [Example 89BE, (S,E)-3-(4-((3-(difluoromethoxy)phenyl)sulfonyl)-6-(4-methylstyryl)-3,4-dihydro-2H-benzo[b][1,4]oxazin-2-yl)propanoic acid] | 500 to 5000 nM | > 10 µM | 
8 | O=C(O)CC[C@H]1CN(S(=O)(=O)c2cccc(C(F)(F)F)c2)c2cc(/C=C3\CCOc4ccccc43)ccc2O1 [Example 38B, (S,E)-3-(6-(chroman-4-ylidenemethyl)-4-((3-(trifluoromethyl)-phenyl)sulfonyl)-3,4-dihydro-2H-benzo[b][1,4]oxazin-2-yl)propanoic acid] | < 500 nM | 0.5 to 5 µM | 
9 | COC(=O)CC[C@H]1CN(S(=O)(=O)c2cccc(OC(F)F)c2)c2cc(/C=C(\C)c3c(F)cccc3Cl)c(Cl)cc2O1 [Example 47, (S,E)-Methyl 3-(6-(2-(2-chloro-6-fluorophenyl)prop-1-en-1-yl)-4-((3-(difluoromethoxy)phenyl)sulfonyl)-7-chloro-3,4-dihydro-2H-benzo[b][1,4]oxazin-2-yl)propanoate] | < 500 nM | 5 to 10 µM | 
10 | COC(=O)CC[C@H]1CN(S(=O)(=O)c2cc(C(F)(F)F)cnc2OC[C@@H](C)O)c2cc(/C=C/c3c(F)cccc3Cl)ccc2O1 [Example 78, Methyl 3-((S)-6-((E)-2-chloro-6-fluorostyryl)-4-((2-((R)-2-hydroxypropoxy)-5-(trifluoromethyl)pyridin-3-yl)sulfonyl)-3,4-dihydro-2H-benzo[b][1,4]oxazin-2-yl)propanoate] | 500 to 5000 nM | 0.5 to 5 µM | 
11 | O=C(O)CC[C@H]1CN(S(=O)(=O)c2cccc(C(F)(F)F)c2)c2cc(/C=C/c3cccnc3Cl)ccc2O1 [Example 89CD, (S,E)-3-(6-(2-(2-chloropyridin-3-yl)vinyl)-4-((3-(trifluoromethyl)-phenyl)sulfonyl)-3,4-dihydro-2H-benzo[b][1,4]oxazin-2-yl)-propanoic acid] | < 500 nM | 0.5 to 5 µM | 
12 | CC(C)n1cnc(S(=O)(=O)N2C[C@H](CCC(=O)O)Oc3ccc(/C=C/c4c(F)cccc4Cl)cc32)c1 [Example 89DY, (S,E)-3-(6-(2-chloro-6-fluorostyryl)-4-((1-isopropyl-1H-imidazol-4-yl)sulfonyl)-3,4-dihydro-2H-benzo[b][1,4]-oxazin-2-yl)propanoic acid] | < 500 nM | 0.5 to 5 µM | 
13 | COc1cc(S(=O)(=O)N2c3cc(/C=C(\C)c4c(F)cccc4Cl)ccc3C[C@@H](O)[C@H]2C)ccc1F (racemic) [Example 169, (2R,3R)-7-((E)-2-(2-Chloro-6-fluorophenyl)prop-1-en-1-yl)-1-((4-fluoro-3-methoxyphenyl)sulfonyl)-2-methyl-1,2,3,4-tetrahydroquinolin-3-ol] |  |  | EC50 (RORγ-LBD; RORγ-LBD TR-FRET assay): < 500 nM; TR-FRET Assay Max Response (RORγ-LBD; RORγ-LBD TR-FRET assay): *** (a value in the range of greater than 150 to 200); EC50 (Gal4-RORγ-LBD; [1]): < 0.5 µM; Gal4-RORγ Assay Max Response (Gal4-RORγ-LBD; [1]): * (a value in the range of 30 to 90)
14 | CCn1cc(S(=O)(=O)N2C[C@H](CCC(=O)O)Oc3ccc(/C=C/c4ncccc4Cl)cc32)c(Cl)n1 [Example 89CQ, (S,E)-3-(4-((3-chloro-1-ethyl-1H-pyrazol-4-yl)sulfonyl)-6-(2-(3-chloropyridin-2-yl)vinyl)-3,4-dihydro-2H-benzo[b][1,4]oxazin-2-yl)propanoic acid] | < 500 nM | 0.5 to 5 µM | 
15 | CCOc1nn(CC)cc1S(=O)(=O)N1C[C@H](CCC(=O)O)Oc2ccc(/C=C/c3ccc(C#N)cc3)cc21 [Example 89DC, (S,E)-3-(6-(4-cyanostyryl)-4-((3-ethoxy-1-ethyl-1H-pyrazol-4-yl)sulfonyl)-3,4-dihydro-2H-benzo[b][1,4]oxazin-2-yl)propanoic acid] | > 10000 nM | > 10 µM | 
16 | CCOc1nn(CC)cc1S(=O)(=O)N1CC(C(=O)O)Cc2ccc(OCc3c(F)cccc3Cl)cc21 (centres unmarked) |  |  | EC50 (RORγ-LBD; with 2 μM ursolic acid (RORγ antagonist), highest test concentration 10 μM): < 500 nM; EC50 (Gal4-RORγ-LBD; ursolic acid present, luciferase readout): > 10 µM
17 | CCOc1ncc(C(F)(F)F)cc1S(=O)(=O)N1C[C@H](CCC(=O)OC)Oc2ccc(/C=C/c3c(Cl)cccc3OC)cc21 [Example 89FB, methyl (S,E)-3-(6-(2-chloro-6-methoxystyryl)-4-((2-ethoxy-5-(trifluoromethyl)pyridin-3-yl)sulfonyl)-3,4-dihydro-2H-benzo[b][1,4]oxazin-2-yl)propanoate] | < 500 nM | 0.5 to 5 µM | 
18 | CCOc1nn(CC)cc1S(=O)(=O)N1C[C@H](CCC(=O)OC)Oc2ccc(/C=C/c3c(C)cccc3F)cc21 [Example 89AH, (S,E)-methyl 3-(4-((3-ethoxy-1-ethyl-1H-pyrazol-4-yl)sulfonyl)-6-(2-fluoro-6-methylstyryl)-3,4-dihydro-2H-benzo[b][1,4]-oxazin-2-yl)propanoate] | < 500 nM | < 0.5 µM | 
